The values below come from patent publication US10807944B2, “HDAC inhibitor compounds and methods of treatment” (priority 2014, dated 2020).

Structures are written as SMILES. Like-named read-outs stand apart in the source and are kept apart here.

One experiment deals with HDAC5 (Homo sapiens (Human), UniProt Q9UQL6). Description: HDAC5 in vitro inhibition, dose response. The format is biochemical. The note with it: Table 1; read-out: Inhibitory Potency (IC50) HDAC 5.
A further experiment has as its target HDAC1 (Homo sapiens (Human), UniProt Q13547). Description: HDAC1 in vitro inhibition, dose response. The experiment is classed as biochemical.

HDAC1, sequence (Q13547 whole entry): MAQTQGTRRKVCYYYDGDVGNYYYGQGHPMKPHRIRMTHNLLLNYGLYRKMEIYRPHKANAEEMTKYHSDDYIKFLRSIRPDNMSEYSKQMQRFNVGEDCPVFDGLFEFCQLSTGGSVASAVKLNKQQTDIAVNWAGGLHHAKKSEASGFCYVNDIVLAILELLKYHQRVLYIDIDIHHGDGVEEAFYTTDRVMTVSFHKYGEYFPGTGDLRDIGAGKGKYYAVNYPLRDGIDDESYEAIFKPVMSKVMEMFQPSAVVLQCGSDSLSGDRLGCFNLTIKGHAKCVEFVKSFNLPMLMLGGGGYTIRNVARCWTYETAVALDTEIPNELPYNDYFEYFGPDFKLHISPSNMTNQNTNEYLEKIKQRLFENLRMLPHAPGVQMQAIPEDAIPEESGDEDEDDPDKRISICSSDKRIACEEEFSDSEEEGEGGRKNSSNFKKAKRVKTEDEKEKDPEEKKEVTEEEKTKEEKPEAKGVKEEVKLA
HDAC5, sequence (Q9UQL6 whole entry): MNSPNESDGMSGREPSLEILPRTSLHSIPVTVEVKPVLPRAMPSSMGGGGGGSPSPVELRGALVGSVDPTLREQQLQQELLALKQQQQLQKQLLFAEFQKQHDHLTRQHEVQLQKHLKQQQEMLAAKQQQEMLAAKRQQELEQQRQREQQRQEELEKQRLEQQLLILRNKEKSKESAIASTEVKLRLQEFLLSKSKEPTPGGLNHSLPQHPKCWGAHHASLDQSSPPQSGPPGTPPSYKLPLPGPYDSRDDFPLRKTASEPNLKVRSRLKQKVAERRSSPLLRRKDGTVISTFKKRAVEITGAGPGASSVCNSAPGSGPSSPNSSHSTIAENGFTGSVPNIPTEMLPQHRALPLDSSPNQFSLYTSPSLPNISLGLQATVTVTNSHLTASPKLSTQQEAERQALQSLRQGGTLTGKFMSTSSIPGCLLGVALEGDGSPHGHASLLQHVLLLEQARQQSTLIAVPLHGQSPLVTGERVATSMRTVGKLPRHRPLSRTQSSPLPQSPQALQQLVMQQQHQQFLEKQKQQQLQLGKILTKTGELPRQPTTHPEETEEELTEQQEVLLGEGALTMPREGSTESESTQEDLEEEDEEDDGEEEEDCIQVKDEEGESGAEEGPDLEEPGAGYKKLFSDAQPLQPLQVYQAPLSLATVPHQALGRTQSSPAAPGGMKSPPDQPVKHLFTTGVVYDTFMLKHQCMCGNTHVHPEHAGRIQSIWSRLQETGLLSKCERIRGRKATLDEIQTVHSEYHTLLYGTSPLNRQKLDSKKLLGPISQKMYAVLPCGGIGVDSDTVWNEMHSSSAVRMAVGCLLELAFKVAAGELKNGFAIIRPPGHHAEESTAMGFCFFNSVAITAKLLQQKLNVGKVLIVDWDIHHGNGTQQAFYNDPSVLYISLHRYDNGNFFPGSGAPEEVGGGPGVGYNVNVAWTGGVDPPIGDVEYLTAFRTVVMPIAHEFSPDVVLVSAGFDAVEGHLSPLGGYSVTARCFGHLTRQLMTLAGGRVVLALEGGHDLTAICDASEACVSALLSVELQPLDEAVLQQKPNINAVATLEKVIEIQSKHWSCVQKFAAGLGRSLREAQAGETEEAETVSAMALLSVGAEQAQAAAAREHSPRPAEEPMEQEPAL

Regarding `CCCCNNC(=O)c1ccc(Br)cc1` [UF010, 4-bromo-N′-butylbenzohydrazide], the IC50 (as a rule, the point on the concentration scale where inhibition reaches its midpoint) at HDAC5 was more than 100 µM; at HDAC1 (Table 1, read-out: Inhibitory Potency (IC50) HDAC 1) it was 0.5 µM; at HDAC1 (Table 2, read-out: HDAC 1 IC50) it was 0.5 µM.
